Holding throughout (format): cell-based
Assay [1] concerns the target cysteines in MDA-MB-231 and Ramos cells (Homo sapiens, UniProt Q99986). As to the kind of experiment: Competitive isoTOP-ABPP in situ (fragment-treated cells).
For assay [2], the target named is cysteines in MDA-MB-231 and Ramos cells (Homo sapiens, UniProt Q9P2X3). The assay is described as above. The conditions noted are these: 200 μM, insitu, 231.
Assay [3] addresses cysteines in MDA-MB-231 and Ramos cells (Homo sapiens, UniProt P41226). The assay is described as above. The conditions noted are these: 200 μM, insitu, 231.
Assay [4] concerns the target cysteines in MDA-MB-231 and Ramos cells (Homo sapiens, UniProt Q9Y2S7). The assay is described as above. The conditions noted are these: 200 μM, insitu, 231.
Assay [5] deals with Cys residues in primary human T cells (Homo sapiens, UniProt P21580). As to the kind of experiment: isoTOP-ABPP of compound-treated primary human T cells. As to conditions: TNFAIP3 C54 (P21580).
In assay [6] the target is T1, Cys residues in primary human T cells (Homo sapiens, UniProt Q02556).
T1 sequence (Q02556 1-426): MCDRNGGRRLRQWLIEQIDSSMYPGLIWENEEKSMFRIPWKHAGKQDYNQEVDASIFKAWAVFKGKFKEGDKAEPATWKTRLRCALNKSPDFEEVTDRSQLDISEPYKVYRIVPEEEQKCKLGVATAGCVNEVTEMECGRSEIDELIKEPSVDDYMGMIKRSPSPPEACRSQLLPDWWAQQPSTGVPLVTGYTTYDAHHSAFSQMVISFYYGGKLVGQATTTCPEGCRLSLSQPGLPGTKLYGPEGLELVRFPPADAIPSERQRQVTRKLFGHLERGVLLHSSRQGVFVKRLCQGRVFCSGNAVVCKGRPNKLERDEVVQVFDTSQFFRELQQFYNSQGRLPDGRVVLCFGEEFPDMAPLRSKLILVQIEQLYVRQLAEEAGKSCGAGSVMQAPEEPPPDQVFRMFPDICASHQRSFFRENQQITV
The description is as above. As to conditions: IRF8 C306 (Q02556).

Assay [7] addresses T2, Cys residues in primary human T cells (Homo sapiens, UniProt Q16548).
T2 sequence (Q16548 1-175): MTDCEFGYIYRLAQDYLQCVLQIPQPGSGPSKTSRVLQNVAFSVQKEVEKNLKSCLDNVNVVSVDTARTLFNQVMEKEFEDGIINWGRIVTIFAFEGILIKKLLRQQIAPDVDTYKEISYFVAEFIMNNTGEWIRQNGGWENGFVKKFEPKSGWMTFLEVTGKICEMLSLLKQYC
The description is as above.

In assay [8] the target is Cys residues in primary human T cells (Homo sapiens, UniProt Q7Z4W1). The description is as above. The conditions noted are these: DCXR C244 (Q7Z4W1).
The target of assay [9] is Cys residues in primary human T cells (Homo sapiens, UniProt Q8TB24). The assay is described as above. The conditions noted are these: RIN3 C942 (Q8TB24).
In assay [10] the target is Cys residues in primary human T cells (Homo sapiens, UniProt Q96FV9). Described as above. As to conditions: THOC1 C49 (Q96FV9).
Assay [11] concerns the target T3, Cys residues in primary human T cells (Homo sapiens, UniProt Q96Q11).
T3 sequence (Q96Q11 42-434): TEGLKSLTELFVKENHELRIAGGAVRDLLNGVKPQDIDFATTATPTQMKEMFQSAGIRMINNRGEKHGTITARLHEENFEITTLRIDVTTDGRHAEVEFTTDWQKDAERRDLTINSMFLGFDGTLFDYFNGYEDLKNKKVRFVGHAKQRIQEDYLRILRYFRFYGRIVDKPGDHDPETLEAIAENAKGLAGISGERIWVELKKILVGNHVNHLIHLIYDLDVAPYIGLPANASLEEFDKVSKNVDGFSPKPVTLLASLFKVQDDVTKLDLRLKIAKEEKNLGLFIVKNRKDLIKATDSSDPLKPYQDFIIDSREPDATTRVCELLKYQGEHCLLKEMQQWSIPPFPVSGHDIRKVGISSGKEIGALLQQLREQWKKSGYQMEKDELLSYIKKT
The description is as above. The conditions noted are these: TRNT1 C373 (Q96Q11).

In assay [12] the target is T4, Cys residues in primary human T cells (Homo sapiens, UniProt Q9Y2W6).
T4 sequence (Q9Y2W6 1-561): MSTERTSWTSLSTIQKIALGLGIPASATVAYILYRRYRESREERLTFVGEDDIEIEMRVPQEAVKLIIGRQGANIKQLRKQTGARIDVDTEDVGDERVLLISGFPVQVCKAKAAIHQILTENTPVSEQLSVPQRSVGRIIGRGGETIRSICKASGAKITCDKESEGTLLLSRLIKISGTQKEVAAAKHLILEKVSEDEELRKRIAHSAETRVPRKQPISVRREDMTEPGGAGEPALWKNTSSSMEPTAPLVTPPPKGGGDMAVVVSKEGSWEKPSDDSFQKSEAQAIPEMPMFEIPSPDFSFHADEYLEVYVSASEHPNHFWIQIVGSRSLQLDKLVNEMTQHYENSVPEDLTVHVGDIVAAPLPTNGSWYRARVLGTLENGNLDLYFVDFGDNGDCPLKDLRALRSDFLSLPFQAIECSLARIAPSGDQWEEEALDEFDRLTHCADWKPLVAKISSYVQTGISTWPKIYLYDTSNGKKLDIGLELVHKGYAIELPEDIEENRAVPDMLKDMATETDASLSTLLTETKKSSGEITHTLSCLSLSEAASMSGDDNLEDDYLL
The assay is described as above. The conditions noted are these: TDRKH C109 (Q9Y2W6).

This is an account of results in patent US10670605B2, “Cysteine reactive probes and uses thereof” (The Scripps Research Institute, priority 2015, dated 2020).

SMILES strings stand for the structures. Where a name gives a salt, the structure may show the parent alone.

Cys residues in primary human T cells (Homo sapiens, UniProt Q7Z4W1), sequence (Q7Z4W1 whole entry): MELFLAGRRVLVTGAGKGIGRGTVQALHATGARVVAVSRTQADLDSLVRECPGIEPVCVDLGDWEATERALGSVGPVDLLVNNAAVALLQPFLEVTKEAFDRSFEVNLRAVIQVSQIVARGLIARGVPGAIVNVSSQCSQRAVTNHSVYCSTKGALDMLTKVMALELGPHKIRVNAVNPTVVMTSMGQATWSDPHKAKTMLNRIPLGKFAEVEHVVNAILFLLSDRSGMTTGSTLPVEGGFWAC
cysteines in MDA-MB-231 and Ramos cells (Homo sapiens, UniProt Q9Y2S7), sequence (Q9Y2S7 52-368): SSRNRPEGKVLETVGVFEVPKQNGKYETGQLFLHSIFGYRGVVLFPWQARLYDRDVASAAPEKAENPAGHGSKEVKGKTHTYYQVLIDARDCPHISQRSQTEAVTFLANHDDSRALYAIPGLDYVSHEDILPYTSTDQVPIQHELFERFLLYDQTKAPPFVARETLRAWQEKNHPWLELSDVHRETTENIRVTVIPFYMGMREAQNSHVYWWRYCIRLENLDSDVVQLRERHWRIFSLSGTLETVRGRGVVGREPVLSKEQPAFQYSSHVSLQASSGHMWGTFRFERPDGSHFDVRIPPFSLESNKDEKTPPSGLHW
cysteines in MDA-MB-231 and Ramos cells (Homo sapiens, UniProt Q99986), sequence (Q99986 whole entry, the tested form may be a part): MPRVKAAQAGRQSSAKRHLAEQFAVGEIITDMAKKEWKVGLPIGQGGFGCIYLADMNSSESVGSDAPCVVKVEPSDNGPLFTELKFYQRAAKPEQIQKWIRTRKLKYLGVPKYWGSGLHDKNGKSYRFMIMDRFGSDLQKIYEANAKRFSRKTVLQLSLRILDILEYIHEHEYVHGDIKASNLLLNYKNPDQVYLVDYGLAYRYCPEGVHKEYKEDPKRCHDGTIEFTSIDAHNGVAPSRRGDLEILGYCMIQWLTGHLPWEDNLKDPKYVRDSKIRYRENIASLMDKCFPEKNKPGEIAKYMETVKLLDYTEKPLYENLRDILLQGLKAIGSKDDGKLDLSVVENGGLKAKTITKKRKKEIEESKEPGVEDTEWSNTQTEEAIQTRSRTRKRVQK
Cys residues in primary human T cells (Homo sapiens, UniProt Q8TB24), sequence (Q8TB24 whole entry): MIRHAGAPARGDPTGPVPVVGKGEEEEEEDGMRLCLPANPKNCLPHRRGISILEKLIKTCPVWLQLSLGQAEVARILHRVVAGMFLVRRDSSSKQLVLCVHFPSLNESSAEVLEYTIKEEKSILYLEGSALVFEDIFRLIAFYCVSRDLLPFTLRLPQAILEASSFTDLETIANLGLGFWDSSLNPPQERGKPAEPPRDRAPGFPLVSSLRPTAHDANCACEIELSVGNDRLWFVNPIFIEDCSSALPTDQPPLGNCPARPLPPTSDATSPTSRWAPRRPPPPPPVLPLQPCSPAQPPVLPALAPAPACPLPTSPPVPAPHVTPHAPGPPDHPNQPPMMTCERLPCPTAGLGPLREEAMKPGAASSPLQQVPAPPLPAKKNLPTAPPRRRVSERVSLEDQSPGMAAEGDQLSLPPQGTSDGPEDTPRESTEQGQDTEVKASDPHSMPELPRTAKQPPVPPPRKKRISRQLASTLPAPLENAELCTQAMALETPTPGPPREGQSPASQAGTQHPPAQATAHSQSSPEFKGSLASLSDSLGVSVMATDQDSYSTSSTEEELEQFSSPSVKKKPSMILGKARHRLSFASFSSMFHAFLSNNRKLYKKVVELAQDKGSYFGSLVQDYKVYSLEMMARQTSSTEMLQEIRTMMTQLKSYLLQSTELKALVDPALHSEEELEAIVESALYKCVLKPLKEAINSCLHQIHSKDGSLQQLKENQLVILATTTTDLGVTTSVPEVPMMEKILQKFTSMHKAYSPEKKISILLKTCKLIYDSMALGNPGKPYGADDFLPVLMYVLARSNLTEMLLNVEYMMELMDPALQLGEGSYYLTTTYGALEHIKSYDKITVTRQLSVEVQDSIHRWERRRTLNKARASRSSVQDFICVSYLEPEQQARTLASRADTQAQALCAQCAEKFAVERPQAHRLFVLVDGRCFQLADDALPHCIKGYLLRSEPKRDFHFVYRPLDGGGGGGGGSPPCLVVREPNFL
cysteines in MDA-MB-231 and Ramos cells (Homo sapiens, UniProt P41226), sequence (P41226 whole entry): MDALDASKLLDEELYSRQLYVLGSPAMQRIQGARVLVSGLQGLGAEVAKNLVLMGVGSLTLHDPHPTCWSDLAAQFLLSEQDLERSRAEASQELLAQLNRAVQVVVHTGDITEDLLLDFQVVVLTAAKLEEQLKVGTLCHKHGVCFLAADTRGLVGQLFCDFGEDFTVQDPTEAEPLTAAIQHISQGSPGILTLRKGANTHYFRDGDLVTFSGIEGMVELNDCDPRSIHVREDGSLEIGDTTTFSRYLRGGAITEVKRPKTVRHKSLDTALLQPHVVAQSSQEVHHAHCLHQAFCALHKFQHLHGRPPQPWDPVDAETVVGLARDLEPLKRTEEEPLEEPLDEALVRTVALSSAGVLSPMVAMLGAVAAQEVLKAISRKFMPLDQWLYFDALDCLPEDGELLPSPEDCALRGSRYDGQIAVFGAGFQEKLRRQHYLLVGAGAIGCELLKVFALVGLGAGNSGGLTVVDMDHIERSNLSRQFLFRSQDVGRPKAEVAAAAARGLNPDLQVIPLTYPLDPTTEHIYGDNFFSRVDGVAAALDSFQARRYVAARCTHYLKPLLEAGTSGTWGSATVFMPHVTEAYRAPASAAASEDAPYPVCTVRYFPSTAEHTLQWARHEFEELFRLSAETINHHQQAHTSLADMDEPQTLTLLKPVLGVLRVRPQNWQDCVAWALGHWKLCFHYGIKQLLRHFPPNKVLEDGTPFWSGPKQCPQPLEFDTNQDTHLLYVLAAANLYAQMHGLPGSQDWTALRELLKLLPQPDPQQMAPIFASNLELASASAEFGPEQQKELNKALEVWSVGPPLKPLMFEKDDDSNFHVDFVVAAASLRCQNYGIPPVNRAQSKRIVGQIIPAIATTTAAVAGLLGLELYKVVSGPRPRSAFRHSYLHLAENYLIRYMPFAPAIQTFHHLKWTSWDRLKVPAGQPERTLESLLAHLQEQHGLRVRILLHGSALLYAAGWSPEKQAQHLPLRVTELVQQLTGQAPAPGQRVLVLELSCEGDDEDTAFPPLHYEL
cysteines in MDA-MB-231 and Ramos cells (Homo sapiens, UniProt Q9P2X3), sequence (Q9P2X3 whole entry): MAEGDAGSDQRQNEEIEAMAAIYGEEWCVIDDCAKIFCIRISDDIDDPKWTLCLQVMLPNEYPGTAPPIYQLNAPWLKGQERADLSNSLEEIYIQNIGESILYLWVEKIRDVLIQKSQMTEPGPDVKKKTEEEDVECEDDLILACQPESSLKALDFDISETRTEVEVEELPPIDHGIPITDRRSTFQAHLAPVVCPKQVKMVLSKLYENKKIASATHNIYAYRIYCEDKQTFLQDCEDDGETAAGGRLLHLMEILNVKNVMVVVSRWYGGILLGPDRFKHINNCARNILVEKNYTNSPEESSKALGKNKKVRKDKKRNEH
Cys residues in primary human T cells (Homo sapiens, UniProt Q96FV9), sequence (Q96FV9 whole entry): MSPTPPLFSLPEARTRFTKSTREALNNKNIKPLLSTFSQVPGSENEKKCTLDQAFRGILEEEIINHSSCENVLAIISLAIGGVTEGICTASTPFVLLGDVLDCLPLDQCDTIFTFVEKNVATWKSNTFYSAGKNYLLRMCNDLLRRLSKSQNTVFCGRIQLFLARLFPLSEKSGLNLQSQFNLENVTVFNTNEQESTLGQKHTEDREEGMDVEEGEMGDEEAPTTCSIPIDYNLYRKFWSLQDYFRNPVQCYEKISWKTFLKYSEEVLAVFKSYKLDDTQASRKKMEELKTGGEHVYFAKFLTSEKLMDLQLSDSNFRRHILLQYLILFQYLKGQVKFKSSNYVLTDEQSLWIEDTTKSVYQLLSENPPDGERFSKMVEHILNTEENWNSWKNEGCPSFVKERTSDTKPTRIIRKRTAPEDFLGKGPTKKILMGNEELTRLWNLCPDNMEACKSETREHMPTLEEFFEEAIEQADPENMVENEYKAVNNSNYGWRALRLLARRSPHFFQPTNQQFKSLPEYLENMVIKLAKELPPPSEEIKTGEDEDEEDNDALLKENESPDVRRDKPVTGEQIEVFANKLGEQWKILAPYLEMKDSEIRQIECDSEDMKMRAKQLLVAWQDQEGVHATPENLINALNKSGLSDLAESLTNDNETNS
Cys residues in primary human T cells (Homo sapiens, UniProt P21580), sequence (P21580 whole entry): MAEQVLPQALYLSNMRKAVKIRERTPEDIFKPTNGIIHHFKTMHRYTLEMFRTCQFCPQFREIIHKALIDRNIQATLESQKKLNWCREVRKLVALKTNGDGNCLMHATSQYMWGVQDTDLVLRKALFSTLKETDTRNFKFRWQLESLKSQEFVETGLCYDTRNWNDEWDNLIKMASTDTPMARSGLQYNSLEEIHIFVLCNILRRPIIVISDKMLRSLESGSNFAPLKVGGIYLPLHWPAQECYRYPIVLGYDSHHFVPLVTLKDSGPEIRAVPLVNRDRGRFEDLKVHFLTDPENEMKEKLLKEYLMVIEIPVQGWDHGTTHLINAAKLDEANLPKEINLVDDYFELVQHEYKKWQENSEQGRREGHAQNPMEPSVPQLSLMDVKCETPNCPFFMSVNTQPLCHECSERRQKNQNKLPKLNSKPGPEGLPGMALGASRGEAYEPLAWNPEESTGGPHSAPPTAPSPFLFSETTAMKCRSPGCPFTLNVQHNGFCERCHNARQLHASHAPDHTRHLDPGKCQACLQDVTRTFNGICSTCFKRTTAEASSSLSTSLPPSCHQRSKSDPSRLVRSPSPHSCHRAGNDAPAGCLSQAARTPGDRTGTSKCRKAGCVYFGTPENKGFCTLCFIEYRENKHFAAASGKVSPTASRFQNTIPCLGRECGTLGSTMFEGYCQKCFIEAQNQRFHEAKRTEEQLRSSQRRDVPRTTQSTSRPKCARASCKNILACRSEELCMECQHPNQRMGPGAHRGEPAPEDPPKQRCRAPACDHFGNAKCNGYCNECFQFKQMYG

Take `CC1CCc2ccccc2N1C(=O)CCl` (stereo not drawn) [compound 45]: the “reactivity profile of liganded cysteine Q99986_C50 with fragment electrophile (isoTOP-ABPP ratio)” value in [1] (cysteine Q99986_C50, fragment 200 μM, in situ, 231 (MDA-MB-231) cells) is given as 4.1. For the same compound, the “isoTOP-ABPP ratio Q9P2X3_C195” value in assay [2] amounted to 20.0.
As for `O=C(CCl)N1CCN(S(=O)(=O)c2ccccc2F)CC1` [compound 10], the “isoTOP-ABPP ratio, cysteine P41226_C599” value in assay [3] worked out at 8.0. In assay [1] (200 μM, insitu, ramos), the “isoTOP-ABPP ratio, cysteine Q99986_C50” value was 0 .7. Moreover, the “isoTOP-ABPP ratio, cysteine Q9Y2S7_C143” value in assay [4] was found to be 13.9.
As for `COC(=O)/C=C/C(=O)OC` [DMF, dimethyl fumarate], the “R value (DMSO/DMF)” value is on record as 1.58 in assay [5] (DMF 10 μM 4h); 5.34 in assay [5] (DMF 50 μM 2h); 1.9 in assay [6] (DMF 10 μM 4h); 1.66 in [6] (DMF 50 μM 1h); 5.32 in assay [6] (DMF 50 μM 4h); 1,15 in [7] (BCL2A1 C19 (Q16548), DMF 10 μM 4h). The “R value (DMSO/DMF)” value in assay [7] (BCL2A1 C19 (Q16548), DMF 25 μM 4h) is 2.19; in [7] (BCL2A1 C19 (Q16548), DMF 50 μM 2h), 2.09; in assay [7] (BCL2A1 C19 (Q16548), DMF 50 μM 4h), 4.16; in assay [7] (BCL2A1 C55 (Q16548), DMF 50 μM 4h), 7.18; in assay [8] (DMF 10 μM 4h), 2.3; in assay [8] (DMF 50 μM 1h), 1.29. Further, the “R value (DMSO/DMF)” value in [8] (DMF 50 μM 2h) is on record as 2.76; in assay [8] (DMF 50 μM 4h) it was 4.24; in assay [9] (DMF 50 μM 2h), 3; in [9] (DMF 50 μM 4h) it was 5.7; in assay [10] (DMF 50 μM 1h) it was 3.93; in assay [10] (DMF 50 μM 2h), 5.7. Besides, the “R value (DMSO/DMF)” value in assay [11] (DMF 50 μM 1h) is 1.97; in [11] (DMF 50 μM 2h), 2.66; in assay [11] (DMF 50 μM 4h) it was 5.83; in [12] (DMF 10 μM 4h), 2.34; in [12] (DMF 50 μM 1h), 4; in [12] (DMF 50 μM 2h) it was 20. Also, the “R value (DMSO/DMF)” value in [12] (DMF 50 μM 4h) is given as 20.
Consider `O=C(CCl)NC12CC3CC(CC(C3)C1)C2` [compound 21], for which the “isoTOP-ABPP ratio, cysteine P41226_C599” value in assay [3] is given as 1.0.
Turning to `Cc1ccc(C=C(C#N)C(=O)NCCN2CCOCC2)cc1` [compound 41], the “isoTOP-ABPP ratio Q9Y2S7_C143” value in assay [4] stood at 1.2.
With `C=CC(=O)N(Cc1cccnc1)c1cc(C(F)(F)F)cc(C(F)(F)F)c1` [compound 31], the “isoTOP-ABPP ratio Q9P2X3_C195” value in assay [2] is listed as 0.5.
